Patent US20240262807A1, “COMPOUND USED AS BCR-ABL INHIBITOR” (CHIA TAI TIANQING PHARMACEUTICAL GROUP CO., LTD., priority 2021, published 2024)

How the values were obtained:
[1] = target: T1, Ba/F3-BCR-ABL1-T315I-C3 cells (Homo sapiens, UniProt P00519, T315I, cells depend on it); assay: Inhibitory effect of compounds on proliferation of BCR-ABL T315I-transfected Ba/F3 cells (CCK-8); assay type: cell-based; conditions: 72 h with compound, CCK-8, 5% serum, read-out: IC50 (nM) Ba/F3-BCR-ABL1 T315I
T1 construct: fused on or other part: P11274 (Breakpoint cluster region protein)
Experimental: Ba/F3-BCR-ABL1-T315I-C3 cells in logarithmic growth phase and good cell condition were added to a centrifuge tube and centrifuged at 1000 rpm for 5 min in a low speed centrifuge. The supernatant was discarded, and 5 mL of complete medium (RPMI 1640 basic medium+10% FBS) was added using a pipette for cell resuspension. The cells were counted using a cell counter, diluted with complete medium to a cell density of 6×10^4 cells/mL, and an equivalent amount of RPMI 1640 basic medium was added to adjust the serum concentration to 5% and the cell density to 3×10^4 cells/mL for plate seeding. The cells were seeded on a 96-well plate at 100 μL/well using a multi-channel pipette and cultured in a cell incubator at 37° C. 5% CO2 and saturated humidity. After 24 h incubation, compounds were loaded using a nanoliter pipettor, 8 concentrations (1000 nM, 250 nM, 63 nM, 16 nM, 3.9 nM, 0.98 nM, 0.24 nM, 0.061 nM) were set for each compound, and 2 replicate wells were set for each concentration; cells with no compounds added were taken as a negative control, and a plating medium with no cells added was taken as a blank control. After 72 h. […] Inhibition rate (%)=(mean value of negative control group−mean value of experimental group)/(mean value of negative control group−mean value of blank group)×100%. A dose-response curve was fitted by four-parameter analysis, with the logarithm of compound concentration serving as abscissa and inhibition rate serving as ordinate, such that ICso was calculated.

[2] = test system: K562 cells; assay: Inhibitory effect of compounds on proliferation of K562 cells (CCK-8); assay type: cell-based; conditions: Homo sapiens, 72 h with compound, CCK-8, 5% serum
Experimental: K562 cells in logarithmic growth phase and good cell condition were added to a centrifuge tube and centrifuged at 1000 rpm for 5 min in a low speed centrifuge. […] The cells were seeded on a 96-well plate at 100 µL/well using a multi-channel pipette and cultured in a cell incubator at 37° ° C. 5% CO2 and saturated humidity. […] Inhibition rate (%)=(mean value of negative control group−mean value of experimental group)/(mean value of negative control group−mean value of blank group)×100%. A dose-response curve was fitted by four-parameter analysis, with the logarithm of compound concentration serving as abscissa and inhibition rate serving as ordinate, such that IC50 was calculated.

[3] = Evaluation of pharmacokinetics in mice; assay type: in vivo; conditions: mouse, plasma, po, ICR mice; for bioavailability: ig 10 mg/kg, (intragastric AUC×intravenous dosage)/(intravenous AUC×intragastric dosage)×100%, read-out: Fabs(%) absolute bioavailability; for Cmax / Tmax / half-life / AUC(0-t) / MRT last: ig, 10 mg/kg; for AUC(0-t): read-out: AUC(0-24); for MRT last: read-out: MRT(0-24)
Experimental: ICR mice (purchased from Shanghai Sippe-Bk Lab Animal Co., Ltd.) of 18-22 g were randomized into groups of 9 after 3-5 days of acclimatization and administered with the compounds at a dose of 10 mg/kg by intragastric administration. The animals to be tested (ICR mice) were fasted overnight before administration and food was provided 4 h after administration, and water was freely drunk before and after the experiment and during the experiment. After intragastric administration, about 0.1 mL of blood was collected from the orbit at 0.25 (15 min), 0.5 (30 min), 1, 2, 3, 4, 6, 8, 10, and 24 h (Each mouse was subjected to blood collection at 3-4 time points, with three mice per time point). The blood samples were mixed with EDTA-K2 anticoagulant, transferred to a centrifuge within 30 min, and then centrifuged at 4000 rpm for 10 min at 4° C. to separate the plasma. All the plasma samples were collected and immediately stored at −20° C. for testing.
300 μL of acetonitrile solution containing an internal standard (20 ng/ml diazepam) was added to 30 μL of the plasma sample and standard curve sample. The mixture was shaken and mixed well for 5 min, and centrifuged at 13.000 rpm for 10 min. 70 μL of supernatant was taken and diluted with 70 μL of ultrapure water. After being mixed well, 1 μL of the resulting sample was subjected to LC/MS/MS, and a chromatogram was recorded.
Oral exposure of the compounds was evaluated by in vivo pharmacokinetic experiments in mice. The relevant pharmacokinetic parameters were fitted by using DAS3.2.5 software, where absolute bioavailability Fabs(%)=(intragastric AUC×intravenous dosage)/(intravenous AUC×intragastric dosage)×100%.

SMILES | GI50 [1] | IC50 [2] | also measured
Cn1ccc(-c2cc(C(=O)Nc3ccc(OC(F)(F)Cl)cc3)cnc2N2CCOCC2)cc1=O [Compound 7] | 16 nM | 11 nM | bioavailability [3]: 74.1%; Cmax [3]: 772 ng/mL; Tmax [3]: 3 h; half-life [3]: 1.05 h; AUC(0-t) [3]: 2850 ng·h/mL; MRT last [3]: 3.03 h
Cn1ccc(-c2cc(C(=O)Nc3ccc(OC(F)(F)Cl)cc3)cnc2N2CCCC2)cc1=O [Compound 15] | 9.6 nM | 3.1 nM | bioavailability [3]: 106%; Cmax [3]: 2330 ng/mL; Tmax [3]: 2 h; half-life [3]: 2.12 h; AUC(0-t) [3]: 12300 ng·h/mL; MRT last [3]: 3.64 h
Cn1ccc(-c2cc(C(=O)Nc3ccc(OC(F)(F)Cl)cc3)cnc2N2C3CCC2COC3)cc1=O [Compound 35] | 13 nM | 16 nM | –
O=C(Nc1ccc(OC(F)(F)Cl)cc1)c1cnc(N2C3CCC2COC3)c(-c2cnn3c2COCC3)c1 [Compound 37] | 16 nM | 7.8 nM | –
O=C(Nc1ccc(OC(F)(F)Cl)cc1)c1cnc(N2CC3CC(C2)O3)c(-c2cnn3c2COCC3)c1 [Compound 39] | 2.4 nM | 5.9 nM | –
CO[C@@H]1CCN(c2ncc(C(=O)Nc3ccc(OC(F)(F)Cl)cc3)cc2-c2cnn3c2COCC3)C1 [Compound 41] | 3.4 nM | 2.1 nM | –
O=C(Nc1ccc(OC(F)(F)Cl)cc1)c1cnc(N2CCCC2)c(-c2cnn3c2COCC3)c1 [Compound 42] | 3.5 nM | 2.3 nM | –
O=C(Nc1ccc(OC(F)(F)Cl)cc1)c1cnc(N2CCOCC2)c(-c2cnn3c2COCC3)c1 [Compound 43] | 4 nM | 2.2 nM | –
O=C(Nc1ccc(OC(F)(F)Cl)cc1)c1cnc(N2CC3CCC(C2)O3)c(-c2cnn3c2COCC3)c1 [Compound 44] | 2.4 nM | 4.5 nM | –
Cn1cnc(-c2cc(C(=O)Nc3ccc(OC(F)(F)Cl)cc3)cnc2N2CCCC2)cc1=O [Compound 45] | 8.1 nM | 4.2 nM | –
Cn1cnc(-c2cc(C(=O)Nc3ccc(OC(F)(F)Cl)cc3)cnc2N2CC[C@@H](O)C2)cc1=O [Compound 46] | 26 nM | 26 nM | –
Cn1ncc(-c2cc(C(=O)Nc3ccc(OC(F)(F)Cl)cc3)cnc2N2CCCC2)cc1=O [Compound 47] | 1.8 nM | 2.6 nM | –
Cn1cnc(-c2cc(C(=O)Nc3ccc(OC(F)(F)Cl)cc3)cnc2N2CC[C@@H](F)C2)cc1=O [Compound 53] | 2.7 nM | 3 nM | –
Cn1cnc(-c2cc(C(=O)Nc3ccc(OC(F)(F)Cl)cc3)cnc2N2CCOCC2)cc1=O [Compound 54] | 6.4 nM | 8.5 nM | –
C[C@@H]1COCCN1c1ncc(C(=O)Nc2ccc(OC(F)(F)Cl)cc2)cc1-c1cc(=O)n(C)cn1 [Compound 56] | 12 nM | 18 nM | –
Cn1cncc(-c2cc(C(=O)Nc3ccc(OC(F)(F)Cl)cc3)cnc2N2CCOCC2)c1=O [Compound 60] | 4 nM | 6.3 nM | –
CO[C@@H]1CCN(c2ncc(C(=O)Nc3ccc(OC(F)(F)Cl)cc3)cc2-c2cc(=O)n(C)cn2)C1 [Compound 63] | 6 nM | 5.2 nM | –
Cn1cnc(-c2cc(C(=O)Nc3ccc(OC(F)(F)Cl)cc3)cnc2N2CCC(F)(F)CC2)cc1=O [Compound 64] | 8.1 nM | 9.1 nM | –
Cn1cnc(-c2cc(C(=O)Nc3ccc(OC(F)(F)Cl)cc3)cnc2N2CCSCC2)cc1=O [Compound 67] | 6.1 nM | 12 nM | –
Cn1cnc(-c2cc(C(=O)Nc3ccc(OC(F)(F)Cl)cc3)cnc2N2CC(F)(F)C2)cc1=O [Compound 72] | 6.3 nM | 9.2 nM | –

SMILES | GI50 [1] | IC50 [2] | also measured
C[C@@H]1CCN1c1ncc(C(=O)Nc2ccc(OC(F)(F)Cl)cc2)cc1-c1cc(=O)n(C)cn1 [Compound 76] | 2.2 nM | 2.2 nM | –
Cn1ncc(-c2cc(C(=O)Nc3ccc(OC(F)(F)Cl)cc3)cnc2N2CC3CC(C2)O3)cc1=O [Compound 83] | 4.1 nM | 3.2 nM | –
Cn1cccc(-c2cc(C(=O)Nc3ccc(OC(F)(F)Cl)cc3)cnc2N2CCOCC2)c1=O [Compound 86] | 14 nM | 24 nM | –
Cn1ncc(-c2cc(C(=O)Nc3ccc(OC(F)(F)Cl)cc3)cnc2N2CC3CCC(C2)O3)cc1=O [Compound 91] | 4.1 nM | 6.6 nM | –
CN1CCc2cc(-c3cc(C(=O)Nc4ccc(OC(F)(F)Cl)cc4)cnc3N3CC[C@@H](O)C3)[nH]c2C1=O [Compound 94] | 0.88 nM | 0.71 nM | –
O=C(Nc1ccc(OC(F)(F)Cl)cc1)c1cnc(N2CCOCC2)c(-c2cc3c([nH]2)C(=O)NC3)c1 [Compound 96] | 0.59 nM | 4.7 nM | –
O=C(Nc1ccc(OC(F)(F)Cl)cc1)c1cnc(N2CCOCC2)c(-c2cc3c([nH]2)C(=O)NCC3)c1 [Compound 97] | 2.3 nM | 5.7 nM | –
O=C(Nc1ccc(OC(F)(F)Cl)cc1)c1cnc(N2CC(O)C2)c(-c2cc3c([nH]2)C(=O)NCC3)c1 [Compound 98] | 3.8 nM | 4.7 nM | –
O=C(Nc1ccc(OC(F)(F)Cl)cc1)c1cnc(N2CC[C@@H](O)C2)c(-c2cc3c([nH]2)C(=O)NCC3)c1 [Compound 99] | 1.4 nM | 3.2 nM | –
CN(C)c1ncc(C(=O)Nc2ccc(OC(F)(F)Cl)cc2)cc1-c1cc2c([nH]1)C(=O)NC2 [Compound 109] | 0.27 nM | 0.95 nM | –
CNc1ncc(C(=O)Nc2ccc(OC(F)(F)Cl)cc2)cc1-c1cc2c([nH]1)C(=O)NC2 [Compound 110] | 0.44 nM | 3.1 nM | –
CN1Cc2cc(-c3cc(C(=O)Nc4ccc(OC(F)(F)Cl)cc4)cnc3N3CC[C@@H](O)C3)[nH]c2C1=O [Compound 111] | 0.16 nM | 0.5 nM | –
CN1Cc2cc(-c3cc(C(=O)Nc4ccc(OC(F)(F)Cl)cc4)cnc3N3CC(O)C3)[nH]c2C1=O [Compound 112] | 0.29 nM | 0.54 nM | –
O=C(Nc1ccc(OC(F)(F)Cl)cc1)c1cnc(N2CC[C@@H](O)C2)c(-c2cc3c([nH]2)C(=O)N(C2CC2)C3)c1 [Compound 113] | 0.18 nM | 0.62 nM | –
O=C(Nc1ccc(OC(F)(F)Cl)cc1)c1cnc(N2CC(O)C2)c(-c2cc3c([nH]2)C(=O)N(C2CC2)C3)c1 [Compound 114] | 0.21 nM | 0.56 nM | –
CN1CCc2cc(-c3cc(C(=O)Nc4ccc(OC(F)(F)Cl)cc4)cnc3N3CCOCC3)[nH]c2C1=O [Compound 115] | 3 nM | 5.5 nM | –
O=C(Nc1ccc(OC(F)(F)Cl)cc1)c1ccc(N2CC[C@@H](O)C2)c(-c2cc3c([nH]2)C(=O)NC3)c1 [Compound 116] | 0.12 nM | 0.82 nM | –
O=C(Nc1ccc(OC(F)(F)Cl)cc1)c1ccc(N2CC(O)C2)c(-c2cc3c([nH]2)C(=O)NC3)c1 [Compound 117] | 0.15 nM | 1 nM | –
O=C(Nc1ccc(OC(F)(F)Cl)cc1)c1ccc(N2CC(O)C2)c(-c2cc3c([nH]2)C(=O)N(C2CC2)C3)c1 [Compound 120] | 0.084 nM | 0.21 nM | –
